The source of these data is patent US20080199439A1, “IAP-binding cargo molecules and peptidomimetics for use in diagnostic and therapeutic methods” (priority 2003, published 2008).

Test [1] concerns HeLa cells. The settings on record: compared with Smac N-terminal tetrapeptide AVPI.
Source text: This example illustrates the use of an labeled IAP-binding cargo molecule to bind with IAP within cells and tissues and inducing apoptosis.
In test [2] the target is recombinant XIAP-BIR3 (Homo sapiens, UniProt P98170). The settings on record: 550 nm peak of free AVPC-badan; binding to recombinant XIAP-BIR3. The source says:
Without wishing to be bound by theory, upon binding to an IAP protein, the labeled IAP-binding cargo molecule packs into the groove of the BIR3 (SEQ ID NO: 15) causing a detectable shift in emission maximum and intensity when the environment of the fluorophore changes from water to the hydrophobic pocket of the protein.

The subject of test [3] is HeLa cells. More on the design: dose or concentration left out as unconfirmed. The note with it: 48 minutes, confocal microscopy.
Test [4] has as its system A498 cells. Description: Competition of AVPC-badan emission by AVPF in A498 cells. The class given is cell-based. The note with it: AVPC-badan 8 mM, 100 equivalents AVPF, 36 minutes, emission 385-470 nm and >505 nm. As for the experimental part:
(§1) The emission between 435-485 nm after exposure of cells for 30 minutes is shown in each case. […] The emission between 385-470 nm and >505 nm after exposure of cells for 36 minutes is shown in each case;
(§2) Thus, the primary action of the IAP binding cargo molecule appears to be by binding to IAP proteins, thus releasing any activated caspases and thereby promoting apoptosis.

The test system of test [5] is HeLa cells. Put plainly: Competition of AVPC-badan emission by AVPF in HeLa cells. The class given is cell-based. The settings on record: AVPC-badan 0.1 mM, 100 equivalents AVPF, 30 minutes, emission 435-485 nm. As for the experimental part:
as §1, §2

Sequence of recombinant XIAP-BIR3 (P98170 265-330 limits assumed): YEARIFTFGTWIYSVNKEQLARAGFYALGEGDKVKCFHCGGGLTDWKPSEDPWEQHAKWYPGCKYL

Consider `CC(N)C(=O)NC(C(=O)N1CCCC1C(=O)NC(CSCC(=O)c1ccc2cc(N(C)C)ccc2c1)C(=O)O)C(C)C` (centres unmarked) [AVPC-badan], for which, in test [1], the “induction of apoptosis (kinetics)” value is “induced apoptosis with kinetics similar to those of the Smac N-terminal tetrapeptide AVPI”. Besides, the “change of emission peak and intensity on binding” value in test [2] is “shifts to 542 nm and increases in intensity”. In addition, the “intracellular localization of the peptide” value in test [3] was “diffuse cytosolic distribution”.

Consider “AVPF: competitor peptide AVPF (SEQ ID NO: 19)”, for which the “effect of competitor on intensity of AVPC-badan emission” value in test [4] and in test [5] was “intensity of emission was found to diminish” each time.
